Test results taken from PubChem BioAssay (NCI).
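Where inhibition never reached the appropriate level, the endpoint shown equals the highest concentration tested. Otherwise, values were interpolated linearly from a five-concentration, 48-hour dose response in 96-well plates. The concentration for full growth arrest is given as TGI.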

Legend:
Assay in all cases: NCI-60 cell line screen, 48 h
HT29 colon = system: HT29 colon
NCI-H522 lung = system: NCI-H522 lung
U251 CNS = system: U251 CNS
COLO 205 colon = system: COLO 205 colon
SK-MEL-5 melanoma = system: SK-MEL-5 melanoma
786-0 renal = system: 786-0 renal
SF-295 CNS = system: SF-295 CNS
SNB-75 CNS = system: SNB-75 CNS
NCI-H460 lung = system: NCI-H460 lung
SF-539 CNS = system: SF-539 CNS
OVCAR-5 ovarian = system: OVCAR-5 ovarian
A498 renal = system: A498 renal
OVCAR-8 ovarian = system: OVCAR-8 ovarian
HOP-62 NSCLC = system: HOP-62 NSCLC
MOLT-4 leukemia = system: MOLT-4 leukemia
UACC-62 melanoma = system: UACC-62 melanoma
OVCAR-4 ovarian = system: OVCAR-4 ovarian
ACHN renal = system: ACHN renal
M14 melanoma = system: M14 melanoma
HOP-92 NSCLC = system: HOP-92 NSCLC

| Structure (SMILES) | TGI (HT29 colon) [µM] | TGI (NCI-H522 lung) [µM] | TGI (U251 CNS) [µM] | TGI (COLO 205 colon) [µM] | TGI (SK-MEL-5 melanoma) [µM] | TGI (786-0 renal) [µM] | TGI (SF-295 CNS) [µM] | TGI (SNB-75 CNS) [µM] | TGI (NCI-H460 lung) [µM] | TGI (SF-539 CNS) [µM] | TGI (OVCAR-5 ovarian) [µM] | TGI (A498 renal) [µM] | TGI (OVCAR-8 ovarian) [µM] | TGI (HOP-62 NSCLC) [µM] | TGI (MOLT-4 leukemia) [µM] | TGI (UACC-62 melanoma) [µM] | TGI (OVCAR-4 ovarian) [µM] | TGI (ACHN renal) [µM] | TGI (M14 melanoma) [µM] | TGI (HOP-92 NSCLC) [µM] |
| --- | --- | --- | --- | --- | --- | --- | --- | --- | --- | --- | --- | --- | --- | --- | --- | --- | --- | --- | --- | --- |
| COCN1C(=N)C(C(=O)OC(C)(C)C)=C2C=C(O)C=CC21C (stereo not given) | 19.9 | 13.5 | 30.6 | 17.5 | 28.6 | 24.7 | > 100 | 33.6 | 44.9 | 33.6 | 32.5 | 36.9 | 55.7 | 75.2 | > 100 | 29.1 | 26.6 | 19.6 | 29.5 | 17.4 |
| CCO[C@H]1O[C@@H]2OC3(C)CCC4[C@H](C)CCC([C@H]1C)[C@]42OO3 (stereo not given in full) | > 100 | > 100 | > 100 | 25.5 | > 100 | > 100 | > 100 | > 100 | > 100 | > 100 | > 68.6 | > 100 | 51.7 | > 100 | > 100 | > 100 | > 100 | > 100 | > 100 | > 100 |
